# Where two headings read alike, the source gives them in different places.
# Molecular target: T1, full length AKT E17K (Homo sapiens, UniProt P31749, E17K)
# T1 construct: host or cells: HEK-293 (ATCC CRL-1573)
# Assay: NanoBRET Target Engagement (TE) Assay
# Format: cell-based
# Settings: read-out: AKT1 E17K IC50
# Summary of the method: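 Compound and tracer incubated 2 h before luminescence at donor 450 nm and acceptor 600 nm, with extracellular signal inhibited. EC50 by sigmoidal variable-slope regression.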
# [1] = competitive tracer displacement in living cells
# T1 sequence (P31749 whole entry E17K): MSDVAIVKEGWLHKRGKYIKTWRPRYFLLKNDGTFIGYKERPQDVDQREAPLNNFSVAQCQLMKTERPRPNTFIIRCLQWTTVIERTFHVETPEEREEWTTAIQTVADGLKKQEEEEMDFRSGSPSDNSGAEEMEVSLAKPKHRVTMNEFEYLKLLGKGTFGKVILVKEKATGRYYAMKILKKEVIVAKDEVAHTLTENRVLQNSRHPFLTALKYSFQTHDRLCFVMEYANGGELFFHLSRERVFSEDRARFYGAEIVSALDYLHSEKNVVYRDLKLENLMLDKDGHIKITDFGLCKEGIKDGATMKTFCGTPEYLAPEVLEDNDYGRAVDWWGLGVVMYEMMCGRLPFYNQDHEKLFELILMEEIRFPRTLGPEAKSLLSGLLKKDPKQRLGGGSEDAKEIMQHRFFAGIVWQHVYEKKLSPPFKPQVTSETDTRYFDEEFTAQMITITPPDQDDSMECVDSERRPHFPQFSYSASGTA
IC50 [1],IC50 (competitive displacement of tracer in cells),SMILES
< 0.015 µM,–,"N#Cc1nccc(NC2CCN(Cc3ccc(-n4c(-c5cccnc5N)nc5ccc(C6CCC6)nc54)cc3)CC2)n1 [Example 262, 4-((1-(4-(2-(2-aminopyridin-3-yl)-5-cyclobutyl-3H-imidazo[4,5-b]pyridin-3-yl)benzyl)piperidin-4-yl)amino)pyrimidine-2-carbonitrile]"
0.06 to 0.6 µM,–,"C[C@@H]1CN(Cc2ccc(-n3c(-c4cccnc4N)nc4ccc(-c5ccccc5)nc43)cc2)CCN1c1ccnc(C#N)n1 [Example 225, (R)-4-(4-(4-(2-(2-aminopyridin-3-yl)-5-phenyl-3H-imidazo[4,5-b]pyridin-3-yl)benzyl)-2-methylpiperazin-1-yl)pyrimidine-2-carbonitrile]"
–,< 0.015 µM,"COC(=O)c1ccc2nc(-c3cccnc3N)n(-c3ccc(CN4CCC(Nc5ccnc(C#N)n5)CC4)cc3)c2n1 [Example 414, Methyl 2-(2-aminopyridin-3-yl)-3-(4-((4-((2-cyanopyrimidin-4-yl)amino)piperidin-1-yl)methyl)phenyl)-3H-imidazo[4,5-b]pyridine-5-carboxylate]"

# From patent US12209087B2, “AKT1 modulators” (Alterome Therapeutics, Inc., priority 2022, dated 2025)
